In publication PMC4436593, “Endoplasmic reticulum stress-independent activation of unfolded protein response kinases by a small molecule ATP-mimic” (eLife, 2015):

Legend:
[1] = biological target: T1, PERK (535–1093 Δ660–868) (Homo sapiens, UniProt Q9NZJ5, DEL660-868); assay: In vitro PERK activation assay (rate of eIF2α phosphorylation by dephosphorylated tag-free PERK cytosolic domain); format: biochemical
T1 construct: GST (N, cleaved yes); made in house; host or cells: E. coli BL21 star (DE3), co-expressed with lambda phosphatase
T1 sequence (Q9NZJ5 with tags, fused parts or gaps DEL660-868): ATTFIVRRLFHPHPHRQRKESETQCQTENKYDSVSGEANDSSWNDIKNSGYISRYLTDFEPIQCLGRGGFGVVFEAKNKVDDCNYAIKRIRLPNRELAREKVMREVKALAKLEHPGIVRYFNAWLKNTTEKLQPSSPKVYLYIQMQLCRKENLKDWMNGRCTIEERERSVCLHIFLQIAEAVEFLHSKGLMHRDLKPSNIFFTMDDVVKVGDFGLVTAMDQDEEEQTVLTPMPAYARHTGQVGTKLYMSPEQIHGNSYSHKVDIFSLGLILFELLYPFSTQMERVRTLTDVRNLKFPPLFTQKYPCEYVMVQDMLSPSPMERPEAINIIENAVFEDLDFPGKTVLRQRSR
Text: To address directly whether PERK activation resulted from IPA binding to PERK itself, we recombinantly expressed the cytosolic portion of human PERK and eIF2α, the only known PERK substrate, and reconstituted the phosphorylation reaction in vitro. To this end, the cytosolic portion of PERK was dephosphorylated and then proteolytically severed and chromatographically separated from its glutathione S-transferase tag, known to promote-constitutive multimerization. The resulting PERK cytosolic fragment was responsive to activation, by contrast to the constitutively active, phosphorylated PERK-GST fusion protein assayed in Figure 4—figure supplement 1.
Full-length cytosolic human PERK was codon-optimized for E. coli expression by Genewiz Inc. A construct was then cloned into a Pgex-6p-2 vector for expression using two rounds of In-Fusion cloning (Clontech) (535–1093 Δ660–868). The cytosolic portion of PERK, lacking the unstructured loop region (amino acids 535–1093 Δ660–868) was then co-expressed with a tagless lambda phosphatase to produce a fully dephosphorylated PERK protein in BL21 star (DE3) (Life Technologies) ([Dar et al., 2008]). Cells were grown to an OD600 of 0.5 before induction with 0.1 mM IPTG at 15°C for 25 hr. Cells were harvested and lysed using AVESTIN Emulsiflex-C3 in a buffer containing 50 mM Tris-HCl, pH 8.0, 500 mM NaCl, 10% glycerol, 5 mM TCEP (buffer A), and EDTA-free COMPlete protease inhibitor cocktail (Roche). Lysate was cleared by centrifugation at 100,000×g before batch binding to a GST-Sepharose resin. The resin was washed 5× times with buffer A, and on-column tag cleavage was preformed using PreScission protease (GE Healthcare). The protein was loaded onto a HiTrap Q HP column to remove remaining protease. The PERK (535–1093 Δ660–868) protein was then concentrated and fractionated on a Superdex 200 GL (GE Healthcare) to remove uncleaved GST-PERK protein.
PERK activation was measured using PERK (535–1093 Δ660–868) in a buffer containing 20 mM Tris-HCl, 150 mM NaCl, 4 mM MgCl2, 5 mM TCEP, 1% glycerol, pH 8.0. PERK concentration was 1 μM, and activity was measured at 30°C. PERK was pre-incubated with 50 μM of cold ATP in the presence or absence of IPA or IPAx. The reaction was then initiated by adding S. cerevisiae eIF2α (1–180) and 0.2 mCi γ-[^32P]-ATP. The reaction was monitored over a time course of 30 min, during which 1/6 of the reaction volume was removed at 0.5, 1, 5, 10, 20, and 30 min and stopped in Laemmli buffer supplemented with 50 mM EDTA. […] Gels were quantified using ImageQuant software and data were processed using SigmaPlot software package. Rates were determined using non-linear regression. Experiments were performed 3 times, and mean errors were determined.

[2] = test system: PERK and eIF2α phosphorylation in HEK293T cells; assay: PERK mobility shift and eIF2α phosphorylation by immunoblotting in HEK293T cells; format: cell-based
Method: To evaluate effects of IPA on the PERK branch, we measured the phosphorylation state of PERK and eIF2α by Western blotting. […] We also monitored PERK activation by phosphorylation of eIF2α, detected with a phospho-eIF2α-specific antibody (Figure 3C).
Cells were lysed in 50 mM Tris-HCl, 2% SDS, 10% glycerol, 0.01% bromophenol blue, pH 6.8 supplemented with phosphatase inhibitors (Sigma) and protease inhibitors (Roche). 30 μg to 50 μg of total protein was loaded on each lane of 8% or 10% SDS-PAGE gels. The separated proteins were then transferred onto nitrocellulose membranes for immunoblotting. The following antibodies and dilutions were used: anti-β-actin 1:10,000 (A5441, Sigma), anti-total PERK at 1:1000 (C33E10, Cell Signaling Technology), anti-phospho eIF2α at 1:1000 (3597S, Cell Signaling Technology), anti-total eIF2α at 1:1000 (L57A5, Cell Signaling Technology). After overnight incubation with primary antibody, membranes were washed in PBS with 0.05% Tween and incubated in HRP-coupled secondary antibody anti-rabbit (611–1302, Rockland) or anti-mouse (610–1302, Rockland) diluted at 1:5000 in wash buffer. Immunoreactive bands were detected by chemiluminescence.

Row | effect on the rate of PERK activity ([1]; IPAx 20 μM) | PERK activation in vitro ([1]; IPAx 0.3 and 0.5 μM, normalized to DMSO control) | Structure (SMILES) | fold change in rate of eIF2α phosphorylation by PERK (maximal activation) ([1]; 0.5 μM (500 nM) IPA, normalized to DMSO control, PERK 1 μM) [fold] | fold change in rate of eIF2α phosphorylation by PERK (inhibitory concentration) ([1]; 3 μM IPA, normalized to DMSO control) [fold] | Tm activation of PERK in the presence of compound ([2]; 4 μM IPA + Tm 2 µg/ml) | PERK phosphorylation (mobility shift), paralleled by eIF2α phosphorylation ([2]; 4 hr, 0.1, 0.5, and 1 µM) | PERK phosphorylation (mobility shift), paralleled by eIF2α phosphorylation ([2]; 4 hr, 2 and 4 μM) | reversibility of PERK inhibition (wash-out) ([2]; IPA wash-out then Tm) | PERK or eIF2α phosphorylation ([2]; 4 hr, 1 µM)
1 |  |  | CSc1ccc(NC(=O)Nc2ccc(Nc3nccc(Nc4cc(C5CC5)[nH]n4)n3)cc2)cc1 [IPA] | 3.3 | 0.31 | Tm addition did not activate PERK | induced a shift in the mobility of PERK | severely diminished or not detectable | reversible | 
2 | showed no effect | No activation was observed | CSc1ccc(NC(=O)Nc2ccc(Nc3nccc(Nc4cc(C5CC5)n(C)n4)n3)cc2)cc1 [IPAx] |  |  |  |  |  |  | did not stimulate PERK or eIF2α phosphorylation
